# Test results from patent US20260201008A1, “SECRETIN-DERIVED GLP1R SELECTIVE AGONISTS” (GUBRA A/S, priority 2023, published 2026).
# Like-named read-outs stand apart in the source and are kept apart here. Numbered stars: 1 amine (or outer) side, 2 acyl side, 3 side chain; on linkers, the order of the positions; unused ones are H or OH. Square brackets hold non-standard residues; d marks the D form. Side chains are listed from the residue outwards. Peptide text beside a SMILES is read from it. * marks the point of attachment. C20 diacid = O=C(O)CCCCCCCCCCCCCCCCCCC(=O)*; γGlu = O=C(O)[C@H](CCC(=O)[*:2])N[*:1]; AEEA = NCCOCCOCC(=O)O; Aib = CC(C)(N)C(=O)O
# Assays:
# [1] = Turbidity of crude library peptides (absorbance at 600 nm); format: physicochemical; details: Physical stability of peptides
# Summary of the method: (§1)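 Turbidity is the absorbance at 600 nm, taken before heating. Fibril signal is the mean ThT emission at 480 nm (450 nm excitation), read every 10 min over 72 h at 40° C with 700 rpm shaking between reads. Peptides at 267 μM, pH 4.0 acetate or pH 7.0 phosphate buffer (50 mM), 4 μM ThT final.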
# [2] = molecular target: SCTR (Homo sapiens, UniProt P47872); assay: hSCTR potency, cAMP accumulation in CHO-K1 cells stably overexpressing hSCTR; format: cell-based; design: alternatively Euroscreen ES-712-AF; FAST-0161L; host or cells: CHO-K1; details: cAMP accumulation, CHO-K1 cells overexpressing hSCTR
# Summary of the method: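 Thawed CHO-K1 cells carrying stable hSCTR are plated into casein/IBMX buffer (0.05%, 0.5 mM), dosed immediately for 30 min at room temperature, then cAMP is detected by TR-FRET. Purified peptides run as 11 three-fold dilutions in duplicate, and curves are fitted with variable slope.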
# [3] = molecular target: GLP1R (Homo sapiens, UniProt P43220); assay: hGLP1R potency, cAMP accumulation in CHO-K1 cells stably overexpressing hGLP1R; format: cell-based; design: host or cells: CHO-K1; details: for EC50: cAMP accumulation, CHO-K1 cells overexpressing hGLP1R; for SCTR EC50/GLP1R EC50 ratio: selectivity for hGLP1R over hSCTR, cAMP accumulation in CHO-K1 cells
# Summary of the method: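 2000 cells/well, DPBS + 0.05% casein + 0.5 mM IBMX; 30 min RT stimulation; HTRF cAMP detection after 1 h. Purified: 3-fold ×11, n=2; crude: 10-fold ×5, n=1. EC50 by variable-slope fit.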
# [4] = Fibril formation of crude library peptides (Thioflavin T); format: physicochemical; design: key: average ThT fluorescence emission at 480 nm (ex 450 nm), raw units; details: Physical stability of peptides
# Summary of the method: as §1
# [5] = read-out: hSCTR pEC50 (converted)
# [6] = read-out: hGLP1R pEC50 (converted)
# Chain of SCTR (P47872 23-440): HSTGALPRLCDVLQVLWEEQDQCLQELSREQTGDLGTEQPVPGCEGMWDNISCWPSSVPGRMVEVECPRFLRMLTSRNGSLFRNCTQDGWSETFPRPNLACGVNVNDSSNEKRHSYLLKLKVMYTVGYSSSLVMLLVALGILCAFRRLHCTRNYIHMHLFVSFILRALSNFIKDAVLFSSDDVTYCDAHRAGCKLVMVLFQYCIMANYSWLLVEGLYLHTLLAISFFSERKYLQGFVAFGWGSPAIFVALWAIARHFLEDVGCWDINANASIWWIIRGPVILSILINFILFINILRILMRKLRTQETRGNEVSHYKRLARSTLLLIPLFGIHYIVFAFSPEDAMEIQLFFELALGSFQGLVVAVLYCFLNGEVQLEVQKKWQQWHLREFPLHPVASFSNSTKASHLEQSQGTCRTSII
# Chain of GLP1R (P43220 24-463): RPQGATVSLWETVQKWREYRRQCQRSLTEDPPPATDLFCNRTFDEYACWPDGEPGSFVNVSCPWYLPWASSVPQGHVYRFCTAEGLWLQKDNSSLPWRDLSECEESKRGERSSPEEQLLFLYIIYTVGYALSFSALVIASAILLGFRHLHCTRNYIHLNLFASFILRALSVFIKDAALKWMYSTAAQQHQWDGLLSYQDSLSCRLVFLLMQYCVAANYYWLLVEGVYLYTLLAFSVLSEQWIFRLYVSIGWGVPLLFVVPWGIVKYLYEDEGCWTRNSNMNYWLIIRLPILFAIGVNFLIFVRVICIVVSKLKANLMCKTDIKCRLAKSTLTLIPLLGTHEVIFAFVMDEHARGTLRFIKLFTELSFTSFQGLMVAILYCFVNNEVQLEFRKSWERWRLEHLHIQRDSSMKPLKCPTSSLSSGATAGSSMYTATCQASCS
Compound,Turbidity (pH 7) [1],"EC50 [2, 5] [nM]","EC50 [3, 6] [nM]",SCTR EC50/GLP1R EC50 ratio [3],Fibril formation [4],EC50 ([2]; read-out: pEC50 hSCTR (converted)) [nM],Selectivity ([3]; SCTR EC50/GLP1R EC50 ratio),EC50 ([3]; read-out: pEC50 hGLPR1 (converted)) [nM]
CC(C)C[C@H](NC(=O)[C@H](Cc1ccccc1)NC(=O)[C@H](CCCNC(=N)N)NC(=O)[C@H](CCC(N)=O)NC(=O)[C@H](CC(C)C)NC(=O)C(C)(C)NC(=O)[C@H](C)NC(=O)[C@H](CCC(=O)O)NC(=O)[C@H](CCC(=O)O)NC(=O)[C@H](CCCCNC(=O)COCCOCCNC(=O)COCCOCCNC(=O)CC[C@H](NC(=O)CCCCCCCCCCCCCCCCCCC(=O)O)C(=O)O)NC(=O)[C@H](CC(C)C)NC(=O)[C@@H](NC(=O)[C@H](CO)NC(=O)[C@@H](NC(=O)[C@H](CC(=O)O)NC(=O)[C@H](CO)NC(=O)[C@@H](NC(=O)[C@H](Cc1ccccc1)NC(=O)[C@@H](NC(=O)CNC(=O)[C@H](CCC(=O)O)NC(=O)C(C)(C)NC(=O)[C@@H](N)Cc1c[nH]cn1)[C@@H](C)O)[C@@H](C)O)C(C)C)C(C)C)C(=O)N[C@@H](CCC(=O)O)C(=O)N[C@@H](Cc1c[nH]cn1)C(=O)N[C@@H](CC(C)C)C(=O)N[C@H](C(N)=O)C(C)C [compound 138] (H-H[Aib]EGTFTSDVSVLK([AEEA-AEEA-γGlu-C20 diacid])EEA[Aib]LQRFLEHLV-NH2),0.09,31.6,0.0126,2569,3306,,,
CC(C)C[C@H](NC(=O)[C@H](C)NC(=O)[C@H](CO)NC(=O)[C@@H](NC(=O)[C@H](CC(=O)O)NC(=O)[C@H](CO)NC(=O)[C@@H](NC(=O)[C@H](Cc1ccccc1)NC(=O)[C@@H](NC(=O)CNC(=O)[C@H](CCC(=O)O)NC(=O)C(C)(C)NC(=O)[C@@H](N)Cc1c[nH]cn1)[C@@H](C)O)[C@@H](C)O)C(C)C)C(=O)N[C@@H](CCCCNC(=O)COCCOCCNC(=O)COCCOCCNC(=O)CC[C@H](NC(=O)CCCCCCCCCCCCCCCCCCC(=O)O)C(=O)O)C(=O)N[C@@H](CCC(=O)O)C(=O)N[C@@H](CCC(=O)O)C(=O)N[C@@H](C)C(=O)NC(C)(C)C(=O)N[C@@H](CC(C)C)C(=O)N[C@@H](CCC(N)=O)C(=O)N[C@@H](CCCNC(=N)N)C(=O)N[C@@H](Cc1ccccc1)C(=O)N[C@@H](CC(C)C)C(=O)N[C@@H](CCC(=O)O)C(=O)N[C@@H](Cc1c[nH]cn1)C(=O)N[C@@H](CC(C)C)C(=O)N[C@H](C(N)=O)C(C)C [compound 148] (H-H[Aib]EGTFTSDVSALK([AEEA-AEEA-γGlu-C20 diacid])EEA[Aib]LQRFLEHLV-NH2),0.08,63.1,0.0158,4094,2928,,,
CC(C)C[C@H](NC(=O)[C@H](Cc1ccccc1)NC(=O)[C@H](CCCNC(=N)N)NC(=O)[C@H](CCC(N)=O)NC(=O)[C@H](CO)NC(=O)[C@H](C)NC(=O)[C@H](C)NC(=O)[C@H](Cc1ccccc1)NC(=O)[C@H](CCC(=O)O)NC(=O)[C@H](CCCCNC(=O)COCCOCCNC(=O)COCCOCCNC(=O)CC[C@H](NC(=O)CCCCCCCCCCCCCCCCCCC(=O)O)C(=O)O)NC(=O)[C@H](CC(C)C)NC(=O)[C@@H](NC(=O)[C@H](CO)NC(=O)[C@@H](NC(=O)[C@H](CC(=O)O)NC(=O)[C@H](CO)NC(=O)[C@@H](NC(=O)[C@H](Cc1ccccc1)NC(=O)[C@@H](NC(=O)CNC(=O)[C@H](CCC(=O)O)NC(=O)C(C)(C)NC(=O)[C@@H](N)Cc1c[nH]cn1)[C@@H](C)O)[C@@H](C)O)C(C)C)C(C)C)C(=O)N[C@@H](CCC(=O)O)C(=O)N[C@@H](Cc1c[nH]cn1)C(=O)N[C@@H](CC(C)C)C(=O)N[C@H](C(N)=O)C(C)C [compound 92] (H-H[Aib]EGTFTSDVSVLK([AEEA-AEEA-γGlu-C20 diacid])EFAASQRFLEHLV-NH2),0.14,1580,0.0794,20773,260000,,,
CC(C)C[C@H](NC(=O)[C@H](Cc1ccccc1)NC(=O)[C@H](CCCNC(=N)N)NC(=O)[C@H](CCC(N)=O)NC(=O)[C@H](C)NC(=O)[C@H](C)NC(=O)[C@H](C)NC(=O)[C@H](Cc1ccccc1)NC(=O)[C@H](CCC(=O)O)NC(=O)[C@H](CCCCNC(=O)COCCOCCNC(=O)COCCOCCNC(=O)CC[C@H](NC(=O)CCCCCCCCCCCCCCCCCCC(=O)O)C(=O)O)NC(=O)[C@H](CC(C)C)NC(=O)[C@H](Cc1ccccc1)NC(=O)[C@H](CO)NC(=O)[C@@H](NC(=O)[C@H](CC(=O)O)NC(=O)[C@H](CO)NC(=O)[C@@H](NC(=O)[C@H](Cc1ccccc1)NC(=O)[C@@H](NC(=O)CNC(=O)[C@H](CCC(=O)O)NC(=O)C(C)(C)NC(=O)[C@@H](N)Cc1c[nH]cn1)[C@@H](C)O)[C@@H](C)O)C(C)C)C(=O)N[C@@H](CCC(=O)O)C(=O)N[C@@H](Cc1c[nH]cn1)C(=O)N[C@@H](CC(C)C)C(=O)N[C@H](C(N)=O)C(C)C [compound 84] (H-H[Aib]EGTFTSDVSFLK([AEEA-AEEA-γGlu-C20 diacid])EFAAAQRFLEHLV-NH2),0.08,3980,0.0794,51215,47022,,,
CC(C)C[C@H](NC(=O)[C@H](Cc1ccccc1)NC(=O)[C@H](CCCNC(=N)N)NC(=O)[C@H](CCC(N)=O)NC(=O)[C@H](CO)NC(=O)[C@H](C)NC(=O)[C@H](C)NC(=O)[C@H](Cc1ccccc1)NC(=O)[C@H](CCC(=O)O)NC(=O)[C@H](CCCCNC(=O)COCCOCCNC(=O)COCCOCCNC(=O)CC[C@H](NC(=O)CCCCCCCCCCCCCCCCCCC(=O)O)C(=O)O)NC(=O)[C@H](CC(C)C)NC(=O)[C@H](CCC(=O)O)NC(=O)[C@H](CO)NC(=O)[C@@H](NC(=O)[C@H](CC(=O)O)NC(=O)[C@H](CO)NC(=O)[C@@H](NC(=O)[C@H](Cc1ccccc1)NC(=O)[C@@H](NC(=O)CNC(=O)[C@H](CCC(=O)O)NC(=O)C(C)(C)NC(=O)[C@@H](N)Cc1c[nH]cn1)[C@@H](C)O)[C@@H](C)O)C(C)C)C(=O)N[C@@H](CCC(=O)O)C(=O)N[C@@H](Cc1c[nH]cn1)C(=O)N[C@@H](CC(C)C)C(=O)N[C@H](C(N)=O)C(C)C [compound 8] (H-H[Aib]EGTFTSDVSELK([AEEA-AEEA-γGlu-C20 diacid])EFAASQRFLEHLV-NH2),0.09,,,,259534,1580,30095,0.0501

# More lines, now with the values ahead:
Turbidity (pH 7) [1],"EC50 [2, 5] [nM]","EC50 [3, 6] [nM]",SCTR EC50/GLP1R EC50 ratio [3],Fibril formation [4],EC50 ([2]; read-out: pEC50 hSCTR (converted)) [nM],Selectivity ([3]; SCTR EC50/GLP1R EC50 ratio),EC50 ([3]; read-out: pEC50 hGLPR1 (converted)) [nM],Compound
0.09,316,0.00251,121171,3415,,,,CC(C)C[C@H](NC(=O)[C@H](Cc1ccccc1)NC(=O)[C@H](CCCNC(=N)N)NC(=O)[C@H](CCC(N)=O)NC(=O)[C@H](CCC(N)=O)NC(=O)C(C)(C)NC(=O)[C@H](C)NC(=O)[C@H](CCC(=O)O)NC(=O)[C@H](CCC(=O)O)NC(=O)[C@H](CCCCNC(=O)COCCOCCNC(=O)COCCOCCNC(=O)CC[C@H](NC(=O)CCCCCCCCCCCCCCCCCCC(=O)O)C(=O)O)NC(=O)[C@H](CC(C)C)NC(=O)[C@H](Cc1ccc(O)cc1)NC(=O)[C@H](CO)NC(=O)[C@@H](NC(=O)[C@H](CC(=O)O)NC(=O)[C@H](CO)NC(=O)[C@@H](NC(=O)[C@H](Cc1ccccc1)NC(=O)[C@@H](NC(=O)CNC(=O)[C@H](CCC(=O)O)NC(=O)C(C)(C)NC(=O)[C@@H](N)Cc1c[nH]cn1)[C@@H](C)O)[C@@H](C)O)C(C)C)C(=O)N[C@@H](CCC(=O)O)C(=O)N[C@@H](Cc1c[nH]cn1)C(=O)N[C@@H](CC(C)C)C(=O)N[C@H](C(N)=O)C(C)C [compound 157] (H-H[Aib]EGTFTSDVSYLK([AEEA-AEEA-γGlu-C20 diacid])EEA[Aib]QQRFLEHLV-NH2)
0.09,25100,0.794,33562,4754,,,,CC(C)C[C@H](NC(=O)[C@H](Cc1ccccc1)NC(=O)[C@H](CCCNC(=N)N)NC(=O)[C@H](CCC(N)=O)NC(=O)[C@H](CC(C)C)NC(=O)C(C)(C)NC(=O)[C@H](C)NC(=O)[C@H](CCC(=O)O)NC(=O)[C@H](CCC(=O)O)NC(=O)[C@H](CCCCNC(=O)COCCOCCNC(=O)COCCOCCNC(=O)CC[C@H](NC(=O)CCCCCCCCCCCCCCCCCCC(=O)O)C(=O)O)NC(=O)[C@H](CC(C)C)NC(=O)[C@H](Cc1ccc(O)cc1)NC(=O)[C@H](CO)NC(=O)[C@@H](NC(=O)[C@H](CC(=O)O)NC(=O)[C@H](CO)NC(=O)[C@@H](NC(=O)[C@H](Cc1ccccc1)NC(=O)[C@@H](NC(=O)CNC(=O)[C@H](Cc1c[nH]c2ccccc12)NC(=O)C(C)(C)NC(=O)[C@@H](N)Cc1c[nH]cn1)[C@@H](C)O)[C@@H](C)O)C(C)C)C(=O)N[C@@H](CCC(=O)O)C(=O)N[C@@H](Cc1c[nH]cn1)C(=O)N[C@@H](CC(C)C)C(=O)N[C@H](C(N)=O)C(C)C [compound 160] (H-H[Aib]WGTFTSDVSYLK([AEEA-AEEA-γGlu-C20 diacid])EEA[Aib]LQRFLEHLV-NH2)
